Test results: patent EP4667483A1, “HUMAN TRANSFERRIN RECEPTOR-BINDING PEPTIDE” (JCR Pharmaceuticals Co., Ltd., priority 2023, dated 2024)
Numbered stars: 1 amine (or outer) side, 2 acyl side, 3 side chain; on linkers, the order of the positions; unused ones are H or OH. Bridge positions count the residues as written; N and C are the ends. Square brackets hold non-standard residues; d marks the D form. Peptide text beside a SMILES is read from it. * marks the point of attachment. Trp(1-CH2COOH) = N[C@@H](Cc1cn(CC(=O)O)c2ccccc12)C(=O)O; NMePhe(4-COOH) = CN[C@@H](Cc1ccc(C(=O)O)cc1)C(=O)O; X1 = O=C([C@H](Cc1cccc(C(=O)[*:3])c1)N[*:1])[*:2]; Nle(6-morpholino) = N[C@@H](CCCCN1CCOCC1)C(=O)O; Trp(7-aza) = N[C@@H](Cc1c[nH]c2ncccc12)C(=O)O; NH(CH2CH2O)8Me = COCCOCCOCCOCCOCCOCCOCCOCCN*; NMePhe(3-Cl) = CN[C@@H](Cc1cccc(Cl)c1)C(=O)O; 3Pal(6-NH2) = Nc1ccc(C[C@H](N)C(=O)O)cn1; NMeY = CN[C@@H](Cc1ccc(O)cc1)C(=O)O; Nva(3-Et) = CCC(CC)[C@H](N)C(=O)O; 4Pal = N[C@@H](Cc1ccncc1)C(=O)O; PEG4 = NCCOCCOCCOCCOCCC(=O)O; Carboxymethyl = O=C(O)C*

Legend:
[1] = target: T1, human transferrin receptor (hTfR) (Homo sapiens, UniProt P02786); assay: SPR measurement under pH 7.4 conditions (Biacore T200, CM3 chip, hTfR captured by His Tag antibody); format: binding; conditions: read-out: hTfR SPR pH7.4 KD
T1 sequence (P02786 whole entry): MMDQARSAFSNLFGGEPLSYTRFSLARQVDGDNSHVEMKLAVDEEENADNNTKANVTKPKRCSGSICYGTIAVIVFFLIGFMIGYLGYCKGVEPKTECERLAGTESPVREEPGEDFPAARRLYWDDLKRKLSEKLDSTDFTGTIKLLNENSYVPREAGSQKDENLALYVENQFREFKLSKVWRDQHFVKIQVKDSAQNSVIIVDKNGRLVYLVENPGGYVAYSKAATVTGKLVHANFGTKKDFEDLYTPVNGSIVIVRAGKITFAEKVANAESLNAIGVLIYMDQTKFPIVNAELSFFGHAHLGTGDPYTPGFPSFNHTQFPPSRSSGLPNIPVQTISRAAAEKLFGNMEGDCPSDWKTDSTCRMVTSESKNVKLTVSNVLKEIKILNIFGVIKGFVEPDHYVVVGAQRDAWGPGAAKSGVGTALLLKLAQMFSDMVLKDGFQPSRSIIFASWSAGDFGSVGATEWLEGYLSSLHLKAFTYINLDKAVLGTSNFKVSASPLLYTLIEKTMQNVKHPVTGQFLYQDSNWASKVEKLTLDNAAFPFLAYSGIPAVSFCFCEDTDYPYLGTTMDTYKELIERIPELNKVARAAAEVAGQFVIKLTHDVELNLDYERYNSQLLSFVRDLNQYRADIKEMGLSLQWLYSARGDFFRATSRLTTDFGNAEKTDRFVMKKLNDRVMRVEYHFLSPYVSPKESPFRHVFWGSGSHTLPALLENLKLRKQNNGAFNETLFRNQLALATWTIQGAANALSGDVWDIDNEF

[2] = target: T1, human transferrin receptor (hTfR); assay: SPR measurement under pH 6.0 conditions (Biacore T200, NTA chip, immobilized hTfR); format: binding; conditions: read-out: hTfR SPR pH6.0 KD
[3] = SPR, pH 7.4, peptide with the linker named in the table
[4] = SPR, pH 6.0, peptide with the linker named in the table

| Structure (SMILES) | Kd ([1]; pH 7.4, single-cycle kinetics) | Kd ([2]; pH 6.0, single-cycle kinetics) | Kd [1, 3] | Kd [2, 4] |
| --- | --- | --- | --- | --- |
| CC[C@H](C)[C@@H]1NC(=O)[C@H](Cc2ccc(OC)cc2)NC(=O)[C@H](Cc2ccc(N)nc2)NC(=O)[C@H](CC(N)=O)NC(=O)[C@H](Cc2c[nH]c3ccccc23)NC(=O)[C@H](C(C)C)NC(=O)[C@H](Cc2cccc(Cl)c2)N(C)C(=O)[C@H](C(C)C)NC(=O)[C@H](C)NC(=O)CSC[C@@H](C(=O)NCCOCCOCCOCCOCCC(N)=O)NC(=O)[C@H](Cc2ccc(O)cc2)N(C)C(=O)[C@H](Cc2ccncc2)NC(=O)[C@H](CCCNC(=N)N)NC(=O)[C@H](CCCCN)NC(=O)[C@H]([C@@H](C)CC)NC1=O [compound 57] ({CH2CO}-AV[NMePhe(3-Cl)]VWN[3Pal(6-NH2)]Y(Me)IIKR[4Pal][NMeY]C[PEG4]-NH2; thioether N-15) | 0.971 nM | 5.4 nM | – | – |
| CC[C@H](C)[C@@H]1NC(=O)[C@H](Cc2ccc(OCC(=O)O)cc2)NC(=O)[C@H](Cc2ccc(N)nc2)NC(=O)[C@H](CC(N)=O)NC(=O)[C@H](Cc2c[nH]c3ncccc23)NC(=O)[C@H](C(C)C)NC(=O)[C@H](Cc2cccc(Cl)c2)N(C)C(=O)[C@H](C(C)C)NC(=O)[C@H](C)NC(=O)CSC[C@@H](C(=O)NCCOCCOCCOCCOCCC(N)=O)NC(=O)[C@H](Cc2ccc(O)cc2)N(C)C(=O)[C@H](Cc2ccncc2)NC(=O)[C@H](CCCCN2CCOCC2)NC(=O)[C@H](CCCCN2CCOCC2)NC(=O)[C@H]([C@@H](C)CC)NC1=O [compound 7] ({CH2CO}-AV[NMePhe(3-Cl)]V[Trp(7-aza)]N[3Pal(6-NH2)]Y(Carboxymethyl)II[Nle(6-morpholino)][Nle(6-morpholino)][4Pal][NMeY]C[PEG4]-NH2; thioether N-15) | 16.3 nM | 89.8 nM | – | – |
| CC[C@H](C)[C@@H]1NC(=O)[C@H](Cc2ccc(OCC(=O)NC[C@H](O)[C@@H](O)[C@H](O)[C@H](O)CO)cc2)NC(=O)[C@H](Cc2ccc(N)nc2)NC(=O)[C@H](CC(N)=O)NC(=O)[C@H](Cc2c[nH]c3ncccc23)NC(=O)[C@H](C(C)C)NC(=O)[C@H](Cc2cccc(Cl)c2)N(C)C(=O)[C@H](C(C)C)NC(=O)[C@H](C)NC(=O)CSC[C@@H](C(=O)NCCOCCOCCOCCOCCC(N)=O)NC(=O)[C@H](Cc2ccc(O)cc2)N(C)C(=O)[C@H](Cc2ccncc2)NC(=O)[C@H](CCCNC(=N)N)NC(=O)[C@H](CCC(=O)NC[C@H](O)[C@@H](O)[C@H](O)[C@H](O)CO)NC(=O)[C@H]([C@@H](C)CC)NC1=O [compound 12] | 7.12 nM | 137 nM | – | – |
| CC[C@H](C)[C@@H]1NC(=O)[C@H](Cc2ccc(OC)cc2)NC(=O)[C@H](Cc2ccc(N)nc2)NC(=O)[C@H](CC(N)=O)NC(=O)[C@H](Cc2c[nH]c3ccccc23)NC(=O)[C@H](C(C)C)NC(=O)[C@H](Cc2cccc(Cl)c2)N(C)C(=O)[C@H](C(C)C)NC(=O)[C@H](C)NC(=O)CSC[C@@H](C(=O)NCCOCCOCCOCCOCCC(N)=O)NC(=O)[C@H](Cc2ccc(C(=O)O)cc2)N(C)C(=O)[C@H](Cc2ccncc2)NC(=O)[C@H](CCCNC(=N)N)NC(=O)[C@H](CCCCN)NC(=O)[C@H]([C@@H](C)CC)NC1=O [compound 59] ({CH2CO}-AV[NMePhe(3-Cl)]VWN[3Pal(6-NH2)]Y(Me)IIKR[4Pal][NMePhe(4-COOH)]C[PEG4]-NH2; thioether N-15) | 1.46 nM | 9.57 nM | – | – |

Now from value to compound:

| Kd ([1]; pH 7.4, single-cycle kinetics) | Kd ([2]; pH 6.0, single-cycle kinetics) | Kd [1, 3] | Kd [2, 4] | Structure (SMILES) |
| --- | --- | --- | --- | --- |
| – | – | 2.75 nM | 11.4 nM | CC[C@H](C)[C@@H]1NC(=O)[C@H](Cc2ccc(OC)cc2)NC(=O)[C@H](Cc2ccc(O)cc2)NC(=O)[C@H](CC(N)=O)NC(=O)[C@H](Cc2c[nH]c3ncccc23)NC(=O)[C@H](C(C)C)NC(=O)[C@H](Cc2cccc(Cl)c2)N(C)C(=O)[C@H](C(C)C)NC(=O)[C@H](C)NC(=O)CSC[C@@H](C(=O)NCCOCCOCCOCCOCCC(N)=O)NC(=O)[C@H](Cc2ccc(O)cc2)N(C)C(=O)[C@H](Cc2cccc(C(=O)NCCOCCOCCOCCOCCC(=O)O)c2)NC(=O)[C@H](CCCNC(=N)N)NC(=O)[C@H](CCC(=O)NCCOCCOCCOCCOCCC(=O)O)NC(=O)[C@H]([C@@H](C)CC)NC1=O [compound 146] |
| – | – | 3.53 nM | 11.5 nM | CCC(CC)[C@@H]1NC(=O)[C@H](Cc2ccc(OCC(=O)O)cc2)NC(=O)[C@H](Cc2ccc(O)cc2)NC(=O)[C@H](CC(N)=O)NC(=O)[C@H](Cc2c[nH]c3ccccc23)NC(=O)[C@H](C(C)C)NC(=O)[C@H](Cc2cccc(Cl)c2)N(C)C(=O)[C@H](C(C)C)NC(=O)[C@H](C)NC(=O)CSC[C@@H](C(=O)NCCOCCOCCOCCOCCC(N)=O)NC(=O)[C@H](Cc2ccc(O)cc2)N(C)C(=O)[C@H](Cc2cccc(C(=O)NCCOCCOCCOCCOCCC(=O)O)c2)NC(=O)[C@H](CCCNC(=N)N)NC(=O)[C@H](CCC(N)=O)NC(=O)[C@H]([C@@H](C)CC)NC1=O [compound 112] ({CH2CO}-AV[NMePhe(3-Cl)]VWNYY(Carboxymethyl)[Nva(3-Et)]IQR[X1](PEG4)[NMeY]C[PEG4]-NH2; thioether N-15) |
| – | – | 7.46 nM | 12.8 nM | CCC(CC)[C@@H]1NC(=O)[C@H](Cc2ccc(OCC(=O)O)cc2)NC(=O)[C@H](Cc2ccc(O)cc2)NC(=O)[C@H](CC(N)=O)NC(=O)[C@H](Cc2c[nH]c3ccccc23)NC(=O)[C@H](C(C)C)NC(=O)[C@H](Cc2cccc(Cl)c2)N(C)C(=O)[C@H](C(C)C)NC(=O)[C@H](C)NC(=O)CSC[C@@H](C(=O)NCCOCCOCCOCCOCCC(N)=O)NC(=O)[C@H](Cc2ccc(C(=O)O)cc2)N(C)C(=O)[C@H](Cc2cccc(C(=O)NCCOCCOCCOCCOCCC(=O)O)c2)NC(=O)[C@H](CCCNC(=N)N)NC(=O)[C@H](CCC(N)=O)NC(=O)[C@H]([C@@H](C)CC)NC1=O [compound 110] ({CH2CO}-AV[NMePhe(3-Cl)]VWNYY(Carboxymethyl)[Nva(3-Et)]IQR[X1](PEG4)[NMePhe(4-COOH)]C[PEG4]-NH2; thioether N-15) |
| 23.6 nM | 87.7 nM | – | – | CC[C@H](C)[C@@H]1NC(=O)[C@H](Cc2ccc(OCC(=O)O)cc2)NC(=O)[C@H](Cc2ccc(O)cc2)NC(=O)[C@H](CC(N)=O)NC(=O)[C@H](Cc2c[nH]c3ncccc23)NC(=O)[C@H](C(C)C)NC(=O)[C@H](Cc2cccc(Cl)c2)N(C)C(=O)[C@H](C(C)C)NC(=O)[C@H](C)NC(=O)CSC[C@@H](C(=O)NCCOCCOCCOCCOCCC(N)=O)NC(=O)[C@H](Cc2ccc(O)cc2)N(C)C(=O)[C@H](Cc2ccncc2)NC(=O)[C@H](CCCNC(=N)N)NC(=O)[C@H](CCC(=O)NCCOCCOCCOCCOCCC(=O)O)NC(=O)[C@H]([C@@H](C)CC)NC1=O [compound 63] |
| 111 nM | 536 nM | – | – | CCC(CC)[C@@H]1NC(=O)[C@H](Cc2ccc(OCC(=O)O)cc2)NC(=O)[C@H](Cc2ccc(N)nc2)NC(=O)[C@H](CC(N)=O)NC(=O)[C@H](Cc2cn(CC(=O)O)c3ccccc23)NC(=O)[C@H](C(C)C)NC(=O)[C@H](Cc2cccc(Cl)c2)N(C)C(=O)[C@H](C(C)C)NC(=O)[C@H](C)NC(=O)CSC[C@@H](C(=O)NCCOCCOCCOCCOCCC(N)=O)NC(=O)[C@H](Cc2ccc(O)cc2)N(C)C(=O)[C@H](Cc2ccncc2)NC(=O)[C@H](CCCNC(=N)N)NC(=O)[C@H](CCC(=O)NCCOCCOCCOCCOCCOCCOCCOCCOC)NC(=O)[C@H]([C@@H](C)CC)NC1=O [compound 48] ({CH2CO}-AV[NMePhe(3-Cl)]V[Trp(1-CH2COOH)]N[3Pal(6-NH2)]Y(Carboxymethyl)[Nva(3-Et)]IE(NH(CH2CH2O)8Me)R[4Pal][NMeY]C[PEG4]-NH2; thioether N-15) |
